Test results: PubChem BioAssay AID1963981 (Molecular Pharmacology Branch, DTP, NCI, 2024)

System: 354836-022-R-J1-PDC multicell spheroid viability
Experiment: Anticancer human tumor 354836-022-R-J1-PDC patient-derived head and neck squamous cell carcinoma cell line growth inhibition [PI3K]
Details: for IC50: curve of first compound; for viability, T/C: stronger effect = lower value
In short: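 Multi-cell spheroids combine tumor cells with HUVEC and human MSCs, treated with targeted agents alone or with inavolisib, alpelisib, duvelisib or copanlisib. Concentrations fall in half-log steps from at or near clinical Cmax, or from 10 microM where Cmax is unknown; viability read-out.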

[1] = second compound 0.0316 µM, first compound 0.0316 µM
[2] = second compound 0.0316 µM, first compound 0.1 µM
[3] = second compound 0.0316 µM, first compound 0.316 µM
[4] = second compound 0.0316 µM, first compound 1 µM
[5] = second compound 0.0316 µM, first compound 3.16 µM
[6] = second compound 0.0316 µM, first compound 10 µM
[7] = second compound 0.1 µM, first compound 0.0316 µM
[8] = second compound 0.1 µM, first compound 0.1 µM
[9] = second compound 0.1 µM, first compound 0.316 µM
[10] = second compound 0.1 µM, first compound 1 µM
[11] = second compound 0.1 µM, first compound 3.16 µM
[12] = second compound 0.1 µM, first compound 10 µM
[13] = second compound 0.316 µM, first compound 0.0316 µM
[14] = second compound 0.316 µM, first compound 0.1 µM
[15] = second compound 0.316 µM, first compound 0.316 µM
[16] = second compound 0.316 µM, first compound 1 µM
[17] = second compound 0.316 µM, first compound 3.16 µM
[18] = second compound 0.316 µM, first compound 10 µM
[19] = second compound 1 µM, first compound 0.0316 µM
[20] = second compound 1 µM, first compound 0.1 µM
[21] = second compound 1 µM, first compound 0.316 µM
[22] = second compound 1 µM, first compound 1 µM
[23] = second compound 1 µM, first compound 3.16 µM
[24] = second compound 1 µM, first compound 10 µM
[25] = second compound 3.16 µM, first compound 0.0316 µM
[26] = second compound 3.16 µM, first compound 0.1 µM
[27] = second compound 3.16 µM, first compound 0.316 µM
[28] = second compound 3.16 µM, first compound 1 µM
[29] = second compound 3.16 µM, first compound 3.16 µM
[30] = second compound 3.16 µM, first compound 10 µM
[31] = second compound 10 µM, first compound 0.0316 µM
[32] = second compound 10 µM, first compound 0.1 µM
[33] = second compound 10 µM, first compound 0.316 µM
[34] = second compound 10 µM, first compound 1 µM
[35] = second compound 10 µM, first compound 3.16 µM
[36] = second compound 10 µM, first compound 10 µM
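Further: spheroids exposed to agents for seven days before the viability read.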

Q: How did the IC50 (second compound 0.0316 µM) turn out when `CC(C)NCC(C(=O)N1CCN(c2ncnc3c2C(C)CC3O)CC1)c1ccc(Cl)cc1` (stereo unspecified) + Cc1nc(NC(=O)N2CCCC2C(N)=O)sc1-c1ccnc(C(C)(C)C(F)(F)F)c1 was run?
A: 240 nM

Q: What about the IC50 (second compound 0.1 µM) of the same compound?
A: 221 nM

Q: What about the IC50 (second compound 0.316 µM) of the same compound?
A: 225 nM

Q: And the IC50 (second compound 1 µM)?
A: 401 nM

Q: And the IC50 (second compound 3.16 µM)?
A: 116 nM

Q: What about the IC50 (second compound 10 µM) of the same compound?
A: < 31.6 nM

Q: What about the viability, T/C [1] of the same compound?
A: 96%

Q: And the viability, T/C [2]?
A: 64.5%

Q: And the viability, T/C [3]?
A: 50.7%

Q: What about the viability, T/C [4] of the same compound?
A: 22.4%

Q: What about the viability, T/C [5] of the same compound?
A: 18.8%

Q: What about the viability, T/C [6] of the same compound?
A: 12.2%

Q: What about the viability, T/C [7] of the same compound?
A: 78.9%

Q: What about the viability, T/C [8] of the same compound?
A: 57.3%

Q: And the viability, T/C [9]?
A: 51.4%

Q: What about the viability, T/C [10] of the same compound?
A: 24%

Q: What about the viability, T/C [11] of the same compound?
A: 17.5%

Q: And the viability, T/C [12]?
A: 10.2%

Q: And the viability, T/C [13]?
A: 79.3%

Q: And the viability, T/C [14]?
A: 65%

Q: What about the viability, T/C [15] of the same compound?
A: 42%

Q: And the viability, T/C [16]?
A: 29%

Q: And the viability, T/C [17]?
A: 16.8%

Q: What about the viability, T/C [18] of the same compound?
A: 6.96%

Q: What about the viability, T/C [19] of the same compound?
A: 59.7%

Q: What about the viability, T/C [20] of the same compound?
A: 73.8%

Q: What about the viability, T/C [21] of the same compound?
A: 54.1%

Q: And the viability, T/C [22]?
A: 27.9%

Q: And the viability, T/C [23]?
A: 18.5%

Q: What about the viability, T/C [24] of the same compound?
A: 6.41%

Q: What about the viability, T/C [25] of the same compound?
A: 53.7%

Q: And the viability, T/C [26]?
A: 53.2%

Q: And the viability, T/C [27]?
A: 40.2%

Q: What about the viability, T/C [28] of the same compound?
A: 22.7%

Q: And the viability, T/C [29]?
A: 13.2%

Q: And the viability, T/C [30]?
A: 6.1%

Q: What about the viability, T/C [31] of the same compound?
A: 34.4%

Q: What about the viability, T/C [32] of the same compound?
A: 32%

Q: What about the viability, T/C [33] of the same compound?
A: 24.8%

Q: And the viability, T/C [34]?
A: 13.5%

Q: And the viability, T/C [35]?
A: 8.39%

Q: And the viability, T/C [36]?
A: 4.1%

Q: `CC(Cn1ccc(-c2ccc(C#N)c(Cl)c2)n1)NC(=O)c1cc(C(C)O)[nH]n1` (stereo unspecified) + Cc1nc(NC(=O)N2CCCC2C(N)=O)sc1-c1ccnc(C(C)(C)C(F)(F)F)c1 was tested. Which IC50 (second compound 0.0316 µM) did it give?
A: > 10000 nM

Q: And the IC50 (second compound 0.1 µM)?
A: > 10000 nM

Q: What about the IC50 (second compound 0.316 µM) of the same compound?
A: > 10000 nM

Q: What about the IC50 (second compound 1 µM) of the same compound?
A: > 10000 nM

Q: What about the IC50 (second compound 3.16 µM) of the same compound?
A: > 10000 nM

Q: And the IC50 (second compound 10 µM)?
A: < 31.6 nM

Q: What about the viability, T/C [1] of the same compound?
A: 109%

Q: What about the viability, T/C [2] of the same compound?
A: 88.7%

Q: What about the viability, T/C [3] of the same compound?
A: 96%

Q: And the viability, T/C [4]?
A: 83.6%

Q: What about the viability, T/C [5] of the same compound?
A: 97.4%

Q: What about the viability, T/C [6] of the same compound?
A: 71.6%

Q: What about the viability, T/C [7] of the same compound?
A: 106%

Q: What about the viability, T/C [8] of the same compound?
A: 93%

Q: What about the viability, T/C [9] of the same compound?
A: 97.8%

Q: What about the viability, T/C [10] of the same compound?
A: 85.6%

Q: And the viability, T/C [11]?
A: 91.1%

Q: And the viability, T/C [12]?
A: 82%

Q: And the viability, T/C [13]?
A: 88.8%

Q: And the viability, T/C [14]?
A: 91.8%

Q: What about the viability, T/C [15] of the same compound?
A: 81%

Q: What about the viability, T/C [16] of the same compound?
A: 102%

Q: And the viability, T/C [17]?
A: 81.2%

Q: And the viability, T/C [18]?
A: 67.6%

Q: What about the viability, T/C [19] of the same compound?
A: 74.2%

Q: What about the viability, T/C [20] of the same compound?
A: 66%

Q: And the viability, T/C [21]?
A: 83%

Q: And the viability, T/C [22]?
A: 82.3%

Q: What about the viability, T/C [23] of the same compound?
A: 83.3%

Q: And the viability, T/C [24]?
A: 61.9%

Q: What about the viability, T/C [25] of the same compound?
A: 62.4%

Q: What about the viability, T/C [26] of the same compound?
A: 61.1%

Q: What about the viability, T/C [27] of the same compound?
A: 60.5%

Q: And the viability, T/C [28]?
A: 71.8%

Q: And the viability, T/C [29]?
A: 71.3%

Q: What about the viability, T/C [30] of the same compound?
A: 57%

Q: What about the viability, T/C [31] of the same compound?
A: 43.6%

Q: And the viability, T/C [32]?
A: 33.7%

Q: What about the viability, T/C [33] of the same compound?
A: 39.9%

Q: What about the viability, T/C [34] of the same compound?
A: 44.4%

Q: And the viability, T/C [35]?
A: 45.5%

Q: What about the viability, T/C [36] of the same compound?
A: 37.1%

Q: How did the IC50 (second compound 0.00316 µM) turn out when `CC1(C)CCC(CN2CCN(c3ccc(C(=O)NS(=O)(=O)c4ccc(NCC5CCOCC5)c([N+](=O)[O-])c4)c(Oc4cnc5[nH]ccc5c4)c3)CC2)=C(c2ccc(Cl)cc2)C1` + COc1c(OCCCN2CCOCC2)ccc2c3n(c(=NC(=O)c4cnc(N)nc4)nc12)CCN3 was run?
A: 4460 nM

Q: What about the IC50 (second compound 0.01 µM) of the same compound?
A: 3750 nM

Q: What about the IC50 (second compound 0.0316 µM) of the same compound?
A: 3730 nM

Q: And the IC50 (second compound 0.1 µM)?
A: 1750 nM

Q: And the IC50 (second compound 0.316 µM)?
A: < 31.6 nM

Q: And the IC50 (second compound 1 µM)?
A: < 31.6 nM

Q: What about the viability, T/C (second compound 0.00316 µM, first compound 0.0316 µM) of the same compound?
A: 85.4%

Q: And the viability, T/C (second compound 0.00316 µM, first compound 0.1 µM)?
A: 97.5%

Q: And the viability, T/C (second compound 0.00316 µM, first compound 0.316 µM)?
A: 97%

Q: And the viability, T/C (second compound 0.00316 µM, first compound 1 µM)?
A: 96.5%

Q: What about the viability, T/C (second compound 0.00316 µM, first compound 3.16 µM) of the same compound?
A: 69.2%

Q: What about the viability, T/C (second compound 0.00316 µM, first compound 10 µM) of the same compound?
A: 5.16%

Q: What about the viability, T/C (second compound 0.01 µM, first compound 0.0316 µM) of the same compound?
A: 92.6%

Q: And the viability, T/C (second compound 0.01 µM, first compound 0.1 µM)?
A: 87.3%

Q: What about the viability, T/C (second compound 0.01 µM, first compound 0.316 µM) of the same compound?
A: 95%

Q: What about the viability, T/C (second compound 0.01 µM, first compound 1 µM) of the same compound?
A: 95.5%

Q: And the viability, T/C (second compound 0.01 µM, first compound 3.16 µM)?
A: 58%

Q: What about the viability, T/C (second compound 0.01 µM, first compound 10 µM) of the same compound?
A: 4.01%

Q: And the viability, T/C [1]?
A: 69%

Q: And the viability, T/C [2]?
A: 76.2%

Q: And the viability, T/C [3]?
A: 78.8%

Q: And the viability, T/C [4]?
A: 79%

Q: And the viability, T/C [5]?
A: 58%

Q: What about the viability, T/C [6] of the same compound?
A: 3.73%

Q: What about the viability, T/C [7] of the same compound?
A: 58.9%

Q: And the viability, T/C [8]?
A: 50.6%

Q: And the viability, T/C [9]?
A: 49%

Q: What about the viability, T/C [10] of the same compound?
A: 61.7%

Q: What about the viability, T/C [11] of the same compound?
A: 44.6%

Q: And the viability, T/C [12]?
A: 2.56%

Q: And the viability, T/C [13]?
A: 12.8%

Q: What about the viability, T/C [14] of the same compound?
A: 12.5%

Q: And the viability, T/C [15]?
A: 13.7%

Q: What about the viability, T/C [16] of the same compound?
A: 14.3%

Q: And the viability, T/C [17]?
A: 7.93%

Q: What about the viability, T/C [18] of the same compound?
A: 1.71%

Q: What about the viability, T/C [19] of the same compound?
A: 1.99%

Q: What about the viability, T/C [20] of the same compound?
A: 1.2%

Q: What about the viability, T/C [21] of the same compound?
A: 1.79%

Q: What about the viability, T/C [22] of the same compound?
A: 1.5%

Q: What about the viability, T/C [23] of the same compound?
A: 1.66%

Q: And the viability, T/C [24]?
A: 0.72%
